Results as given in patent US20050170020A1, “Using organic and / or inorganic potassium and its salts to treat autoimmune and other health disorders and methods of administering the same” (priority 2003, published 2005).

Tested on: psoriasis affected scalp area
Assay: Phenylephrine applied on psoriasis affected scalp area
Format: in vivo, human
Conditions: topical, inventor
From the text: From above it is clear that by reducing the body water loss i.e. by vasoconstriction we can control the psoriasis. To check this theory inventor has applied Phenylephrine which is used for nasal decongestant, on psoriasis affected scalp area. Phenylephrine is an Adrenergic Agent that mimics the sympathetic neurotransmitter norepinephrine (NE). […] This worked by way of reducing water loss of psoriatic skin by vasoconstriction.

CNC[C@H](O)c1cccc(O)c1 [Phenylephrine]
Response of psoriatic skin: lesions reduced
